Legend:
[1] = system: B/Florida/04/2006 (Yamagata lineage); set-up: species or system BALB/c mice; conditions: mouse, in vivo
[2] = in EV3 and EV7; requested 0.22-0.44 mg/mL
[3] = system: Mouse bone marrow-derived dendritic cells (mBMDCs); assay: Antigen (OVA-Alexa Fluor 488) uptake in mouse BMDCs, flow cytometry; assay type: cell-based, C57BL/6 mice; conditions: 10 μM 1Z105 or MPLA overnight, 37° C., OVA-488 last 30 min
Description: (§1) (A) Upregulation of antigen uptake by 1Z105. BMDCs prepared from C57BL/6 mice were incubated with 10 μM 1Z105 or MPLA overnight. Antigen, Alexa Fluor 488-conjugated ovalbumin (OVA-488), was added to the culture for the last 30 min of incubation. The cells were washed and stained for CD11c. OVA-associated dendritic cells in the CD11c^hi population were evaluated by flow cytometry. Cells incubated at 4° C. served as a negative control. (B and C) Enhancement of expression of costimulatory molecules by 1Z105.WT (B) or Tlr4^−/− (C) BMDCs were incubated with 1Z105 (10 or 2 μM) or MPLA (0.04 μg/ml) overnight, and expression of CD40 and CD86 was assessed by flow cytometric assay. (D) 1Z105 promotes antigen cross-presentation. Wild-type BMDCs were incubated with 1Z105 (2 μM) overnight, and OVA (10 μg/ml) was added to the culture for the last 4 h of incubation. […] OT-1 T-cell proliferation was monitored by flow-cytometric assay. […] Cytokine release of IL-1β, IL-6, IL-8, IL-12p70, and TNF-α was determined by Luminex bead assay. […]
(§2) Mouse bone marrow-derived dendritic cells (mBMDCs) were prepared from wild type or Tlr4^−/− C57BL/6 mice. mBMDCs (10^5 cells per well) were plated in 96-well plates in 200 μl of complete RPMI 1640. […] The cells were stained for CD11c, and OVA uptake and expression of CD40 and CD86 in the CD11chi-gated population was determined by flow cytometry.

[4] = system: Mouse bone marrow-derived dendritic cells (mBMDCs); assay: Costimulatory-molecule (CD40, CD86) expression in mouse BMDCs; assay type: cell-based, C57BL/6 mice
Description: as §1, §2

[5] = system: CD8+ OT-1 T cells cultured with BMDCs; assay: OT-1 CD8 T cell proliferation assay (antigen cross-presentation); assay type: cell-based, C57BL/6 mice; conditions: BMDCs with 1Z105 2 μM or MPLA 1 μg/ml overnight, OVA 10 μg/ml, 3 days
Description: (A) Upregulation of antigen uptake by 1Z105. BMDCs prepared from C57BL/6 mice were incubated with 10 μM 1Z105 or MPLA overnight. Antigen, Alexa Fluor 488-conjugated ovalbumin (OVA-488), was added to the culture for the last 30 min of incubation. The cells were washed and stained for CD11c. OVA-associated dendritic cells in the CD11c^hi population were evaluated by flow cytometry. Cells incubated at 4° C. served as a negative control. (B and C) Enhancement of expression of costimulatory molecules by 1Z105.WT (B) or Tlr4^−/− (C) BMDCs were incubated with 1Z105 (10 or 2 μM) or MPLA (0.04 μg/ml) overnight, and expression of CD40 and CD86 was assessed by flow cytometric assay. (D) 1Z105 promotes antigen cross-presentation. Wild-type BMDCs were incubated with 1Z105 (2 μM) overnight, and OVA (10 μg/ml) was added to the culture for the last 4 h of incubation. The cells were washed and cultured with CFSE-labeled CD8^+ OT1Tcells for 3 days. OT-1 T-cell proliferation was monitored by flow-cytometric assay. […] Cytokine release of IL-1β, IL-6, IL-8, IL-12p70, and TNF-α was determined by Luminex bead assay. […]
Naive CD8^+ T cells from OT-1 C57BL/6 mice were isolated using an EasySep Mouse CD8^+ T Cell Isolation Kit and stained with carboxyfluorescein succinimidyl ester (CFSE) (10 μM). […] OT-1 T cell proliferation was monitored by CFSE dilution using a flow cytometer.

[6] = system: human monocyte-derived DCs; assay: Cytokine induction of human monocyte-derived dendritic cells (Luminex); assay type: cell-based; conditions: 10 μM, 18 h
Description: as §1, with “cross-presentation.” for “cross-presentation. Wild-type BMDCs were incubated with 1Z105 (2 μM) overnight, and OVA (10 μg/ml) was added to the culture for the last 4 h of incubation.”
Human primary dendritic cells (DCs) were generated. […] The supernatants were stored at −20° C. for later quantification of released cytokines. Quantification of IL-1β, IL-6, IL-8, IL-12p70, and tumor necrosis factor alpha (TNF-α) released in supernatants was performed using the Milliplex Multiplex Assays (Luminex; Millipore, Billerica, Mass.) according to the manufacturer's instructions. Data were analyzed using the Milliplex Analyst software (Millipore).

BMDC (C57BL/6) = assay: IL-6 and IP-10 release by BMDC with 1V270 with or without 1Z105; assay type: cell-based, C57BL/6 mice; conditions: 1V270 0.025 or 0.1 μM with 1Z105 5 μM
Description: To evaluate whether 1Z105 can enhance the proinflammatory cytokine induction by 1V270, BMDC (C57BL/6) were incubated with 1V270 (0.025, or 0.1 μM) in the presence or absence of 1Z105 (5 μM). […] Antigen presenting function was evaluated using splenocytes prepared from OVA MHC class II-restricted alpha beta T cell receptor (TCR) transgenic mice OT-II. Splenocytes were cultured with OVA peptide (OVA323-339) for 3 days with 1Z105, or 1V270 alone or in combination. The frequency of intracellular (IC) IFNγ expressing CD4 T cells was determined by flow cytometric assay. Treatment with 1V270 alone increased intracellular IFNγ (3.7 and 6.8% by 25 and 100 nM, respectively).

| SMILES | mortality compared to the no-adjuvant group [1] | solubility of 1V270 [2] | OVA-associated CD11chi BMDCs (antigen uptake) [3] | surface expression of CD40 and CD86 ([4]; TLR4-deficient (Tlr4-/-) BMDCs) | surface expression of CD40 and CD86 ([4]; WT BMDCs, 1Z105 10 or 2 μM, MPLA 0.04 μg/ml, overnight) | proliferation of OT-1 cells (antigen cross-presentation) [5] | proinflammatory cytokine release (IL-1β, IL-6, IL-8, IL-12p70, TNF-α) [6] | IL-6 release induced by 1V270 (BMDC (C57BL/6)) | IP-10 release induced by 1V270 (BMDC (C57BL/6)) |
| --- | --- | --- | --- | --- | --- | --- | --- | --- | --- |
| CCCCCCCCC=CCCCCCCCC(=O)OCC(COP(=O)(O)OCCNC(=O)c1ccc(Cn2c(=O)[nH]c3c(N)nc(OCCOC)nc32)cc1)OC(=O)CCCCCCCC=CCCCCCCCC (stereo not drawn) [Compound 1V270] | significantly reduced | achieved to the requested concentration |  |  |  |  |  |  |  |
| Cn1c2ccccc2c2nc(SCC(=O)NC3CCCCC3)n(-c3ccccc3)c(=O)c21 [Compound 1Z105] |  |  | increased number | not observed | increased the surface expression of CD40 and CD86 at levels similar to that of MPLA | induced proliferation of OT-1 cells | activated human monocyte-derived DCs, resulting in proinflammatory cytokine release | significantly enhanced | significantly enhanced |
